Counter-ions that a name gives are not always drawn.

This note sets out measurements from US10717733B2, “Haloallylamine indole and azaindole derivative inhibitors of lysyl oxidases and uses thereof” (PHARMAXIS LTD., priority 2016, dated 2020).

One assay addresses Human LOXL2 (Homo sapiens (Human), UniProt Q9Y4K0). The assay can be described thus: LOXL2 inhibition, peroxidase-coupled Amplex Red amine oxidase assay. It is filed as biochemical. The following applies: 30 min preincubation at 37° C., putrescine substrate. The gist of the method:
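Enzyme in 1.2 M urea, 50 mM sodium borate pH 8.2 with 1 μM mofegiline and 0.5 mM pargyline, preincubated 30 min at 37° C with compound (11-point CRC). Putrescine at twice KM (10 mM for LOXL2) with Amplex Red/HRP; fluorescence (ex 565, em 590) read kinetically 30 min; IC50 from slopes.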

Assay [1] relates to STAM mice, NASH liver fibrosis. The assay can be described thus: Streptozotocin and high fat diet induced liver fibrosis (STAM model). It is filed as in vivo, mouse. As to conditions: daily oral gavage 10-30 mg/kg, FIG. 6. On the procedure: High fat/carbohydrate diet induced liver fibrosis is the most common reason for liver dysfunction and ultimately liver failure. NASH is induced in male mice by a single subcutaneous injection of 200 μg streptozotocin solution 2 days after birth and feeding with high fat diet after 4 weeks of age (STAM™ model).
LOXL2 inhibitor compound 112 was administered by daily oral gavage at doses between 10-30 mg/kg 8 weeks after streptozotocin application. Mice were sacrificed after NASH had been established and whole blood samples were taken via cardiac puncture. Liver samples were collected and washed with cold saline. Liver weight was measured. The left lateral, right and caudate lobes of livers were snap frozen in liquid nitrogen and stored at −80° C. For HE staining, sections were cut from paraffin blocks of liver tissue prefixed in Bouin's solution and stained with Lillie-Mayer's Hematoxylin and eosin solution. NAFLD Activity score (NAS) was calculated according to the criteria of Kleiner (Kleiner D E. et al., Design and validation of a histological scoring system for nonalcoholic fatty liver disease. Hepatology, 2005; 41:1313). To visualize collagen deposition, Bouin's fixed liver sections were stained using picro-Sirius red solution and the area of fibrosis was quantified (See FIG. 6).

Assay [2] concerns primary fibroblasts from confirmed cases of IPF. Description: Collagen cross-link formation in in vitro fibroblastic foci model of IPF. It is filed as cell-based, human. The following applies: TGF-β1 stimulated foci, six weeks culture, FIGS. 7a and 7b. The source says:
The lung tissue of patients with idiopathic pulmonary fibrosis (IPF) is characterised by dense collections of myofibroblasts and extracellular matrix (ECM) termed ‘fibroblastic foci’. Using a novel in vitro model of fibroblastic foci (Jones et al., AJRCCM 191; 2015:A4912) the formation of lysyl oxidase (LOX) mediated collagen cross-links and the effects of the nonselective LOX inhibitor β-aminopropionitrile (BAPN) as well lysyl oxidase like-2 (LOXL2)-selective inhibitors were investigated.
Cultures of primary fibroblasts were grown out from clinical diagnostic biopsies of fibrotic lung and stored in liquid nitrogen. […]
To quantify collagen cross-links (Robins Biochem Soc Trans 2007; 35(5): 849-852; Saito et al Anal. Biochem. 1997; 253: 26-32; Sims, Avery & Bailey Methods in Molecular Biology 2000; vol 139: 11-26), cultures were treated with potassium borohydride to stabilise the reducible immature cross-links, and hydrolysed in 6N HCl at 100° C. for 16 hr. Total collagen content was assessed by hydroxyproline assay. Immature cross-links were assessed by LC/MS/MS and mature pyridinoline cross-links by ELISA. Cross-link data is expressed as moles of cross-link per mole collagen.

Assay [3] relates to myocardial infarction induced fibrosis. Description: Myocardial infarction induced fibrosis (carotic ligation) model. Type of assay: in vivo, mouse. The following applies: mice, 0.1-100 mg/Kg once a day oral gavage, FIG. 5. The source says:
Carotic ligation is a widely accepted experimental model to induce cardiac fibrosis and to determine the anti-fibrotic activity of therapeutic agents.
In mice, the chest is opened via a left thoracotomy. The left coronary artery is identified visually using a stereo microscope, and a 7-0 suture is placed around the artery 1-2 mm below the left auricle. Permanent occlusion of the left coronary artery resulted from its ligation with the suture. Myocardial ischemia was confirmed by pallor in heart color and ST-segment elevation. (see Parajuli et al. Phosphatase PTEN is critically involved in post-myocardial infarction remodeling through the Akt/interleukin-10 signaling pathway Basic Res Cardiol (2012) 107:248).
Mice were subjected to sham or carotic ligation surgery. At 24 hrs post-surgery, echocardiography was performed on the mice. Mice were treated with compound 25 0.1-100 mg/Kg once a day for 21 (7 days after carotic ligation) or 28 days or saline as vehicle controls by oral gavage. At the end of the experiment, echocardiography was repeated to assess left ventricular function and remodeling. Then mice were euthanized for heart collection. Each heart was photographed and fixed with 10% formalin. Hearts were sectioned for Masson's trichrome stain to measure fibrosis (See FIG. 5).

Human LOXL2, sequence (Q9Y4K0 26-774): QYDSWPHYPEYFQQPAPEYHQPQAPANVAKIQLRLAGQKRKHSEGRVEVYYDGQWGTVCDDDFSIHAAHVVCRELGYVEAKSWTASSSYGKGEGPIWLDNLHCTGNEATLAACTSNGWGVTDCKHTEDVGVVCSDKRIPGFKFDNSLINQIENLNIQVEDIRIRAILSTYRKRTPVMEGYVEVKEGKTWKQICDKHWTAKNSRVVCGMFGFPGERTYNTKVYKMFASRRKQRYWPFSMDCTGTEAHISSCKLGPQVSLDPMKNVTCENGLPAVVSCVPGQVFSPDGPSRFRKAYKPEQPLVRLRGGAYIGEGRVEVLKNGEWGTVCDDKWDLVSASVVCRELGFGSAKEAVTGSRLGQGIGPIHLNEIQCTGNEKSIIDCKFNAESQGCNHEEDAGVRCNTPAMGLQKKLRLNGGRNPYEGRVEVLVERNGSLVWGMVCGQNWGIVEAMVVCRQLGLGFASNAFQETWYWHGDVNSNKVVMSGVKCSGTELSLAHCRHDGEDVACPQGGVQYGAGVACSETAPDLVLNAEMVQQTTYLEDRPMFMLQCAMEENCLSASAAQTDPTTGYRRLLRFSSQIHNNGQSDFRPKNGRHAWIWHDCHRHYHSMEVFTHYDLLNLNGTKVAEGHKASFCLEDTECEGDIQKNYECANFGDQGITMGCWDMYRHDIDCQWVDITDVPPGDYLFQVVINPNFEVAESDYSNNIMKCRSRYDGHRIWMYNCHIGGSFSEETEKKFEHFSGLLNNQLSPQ

As for `Cc1ccc2c(n1)c(-c1cccc(S(C)(=O)=O)c1)c(C)n2C/C(F)=C/CN` [Compound 112, (Z)-4-(2,5-dimethyl-3-(3-(methylsulfonyl)phenyl)-1H-pyrrolo[3,2-b]pyridin-1-yl)-3-fluorobut-2-en-1-amine Dihydrochloride], on Human LOXL2, the IC50 is less than 300 nM. The “liver fibrosis (picro-Sirius red area of fibrosis)” value in assay [1] is given as “reduce lilver fibrosis”. Also, the “collagen cross-link formation (immature and mature cross-links)” value in assay [2] was “reduced cross-link formation in a concentration dependent manner”.

Take `CCOC(=O)c1ccc2c(c1)c(-c1cccc(S(=O)(=O)N(C)C)c1)c(C)n2C/C(F)=C/CN` [Compound 12, (Z)-ethyl 1-(4-amino-2-fluorobut-2-en-1-yl)-3-(3-(N,N-dimethylsulfamoyl)phenyl)-2-methyl-1H-indole-5-carboxylate]: the IC50 against Human LOXL2 is less than 300 nM.

At Human LOXL2, `Cc1c(-c2cccc(S(=O)(=O)N(C)C)c2)c2ncccc2n1C/C(F)=C/CN` [Compound 25, (Z)-3-(1-(4-amino-2-fluorobut-2-en-1-yl)-2-methyl-1H-pyrrolo[3,2-b]pyridin-3-yl)-N,N-dimethylbenzenesulfonamide Dihydrochloride] had an IC50 of less than 300 nM. In addition, the “fibrosis after carotic ligation (Masson's trichrome stain)” value in assay [3] is listed as “reduce fibrosis”.
